Results: ChEMBL document CHEMBL1150541, “Penem inhibitors of bacterial signal peptidase” (Bioorg Med Chem Lett, 1995)
Where a SMILES comes first, the peptide text is derived from it.

Key:
[1] = target: Signal peptidase I (Escherichia coli K-12) (UniProt P00803); test: Inhibitory activity against Escherichia coli leader peptidase at a concentration of 100 uM
[2] = target: Signal peptidase I (Escherichia coli K-12, UniProt P00803); test: Inhibitory activity against Escherichia coli leader peptidase using substrate A; conditions: read-out: I50
[3] = Inhibitory activity against Escherichia coli leader peptidase using substrate A.; conditions: read-out: I50
[4] = Inhibitory activity against Escherichia coli leader peptidase using substrate B; conditions: read-out: I50
[5] = tested on: Escherichia coli; test: Compound was evaluated for Michaelis-Menten constant (Km)
[6] = tested on: Escherichia coli; conditions: 100 uM

Chain of Signal peptidase I (P00803 whole entry): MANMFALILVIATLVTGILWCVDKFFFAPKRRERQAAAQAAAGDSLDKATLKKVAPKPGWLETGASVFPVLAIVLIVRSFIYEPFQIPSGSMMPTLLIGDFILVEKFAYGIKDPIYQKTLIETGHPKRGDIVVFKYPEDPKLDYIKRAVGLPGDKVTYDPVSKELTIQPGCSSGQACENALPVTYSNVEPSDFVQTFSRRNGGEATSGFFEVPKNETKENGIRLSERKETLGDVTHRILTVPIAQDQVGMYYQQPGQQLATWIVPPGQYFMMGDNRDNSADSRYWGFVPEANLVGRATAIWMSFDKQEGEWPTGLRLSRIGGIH
Chain of Signal peptidase I (Escherichia coli K-12) (P00803 whole entry): as above

Row | Compound | inhibition [1] [%] | IC50 [2] [µM] | also measured
1 | COc1ccc(COC(=O)C2=CSC3CC(=O)N23)cc1 (stereo not drawn) | 100 | 7 | 
2 | O=C(OCc1ccccc1)C1=CS[C@@H]2CC(=O)N12 | 0 |  | 
3 | C=CCOC(=O)C1=CS[C@@H]2[C@@H]([C@@H](C)OC(C)=O)C(=O)N12 | 64 |  | 
4 | C=CCOC(=O)C1=CS[C@H]2[C@@H]([C@@H](C)OC(C)=O)C(=O)N12 [listing 1 of 3 here] | 100 |  | 
5 | O=C(OCc1ccc([N+](=O)[O-])cc1)C1=CSC2CC(=O)N12 (stereo not drawn) | 85 | 50 | 
6 | COC(=O)c1ccc(COC(=O)C2=CSC3CC(=O)N23)cc1 (stereo not drawn) | 100 | 3 | 
7 | O=C(C1=CSC2CC(=O)N12)N1CCCC1 (stereo not drawn) | 93 |  | IC50 [3]: 10 µM
8 | O=C(OCc1ccccc1)C1=CS[C@H]2CC(=O)N12 | 100 | 3 | 
9 | O=C(C1=CSC2CC(=O)N12)N1CCOCC1 (stereo not drawn) | 79 | 115 | 
10 | C=CCOC(=O)C1=CS[C@@H]2[C@H]([C@H](C)OC(C)=O)C(=O)N12 | 20 |  | 
11 | C=CCOC(=O)C1=CS[C@H]2[C@@H](CC)C(=O)N12 | 84 | 20 | 
12 | C=CCOC(=O)C1=CS[C@H]2[C@@H]([C@H](C)OC(C)=O)C(=O)N12 | 0 |  | 
13 | O=C(Nc1ccccc1)C1=CSC2CC(=O)N12 (stereo not drawn) | 86 | 58 | 
14 | C=CCOC(=O)C1=CS[C@H]2[C@@H]([C@@H](C)OC(C)=O)C(=O)N12 [listing 2 of 3 here] |  | 0.85 | IC50 [4]: 0.07 µM
15 | C=CCOC(=O)C1=CS[C@H]2[C@@H]([C@@H](C)OC(C)=O)C(=O)N12 [listing 3 of 3 here] |  | 1.8 | 
16 | CC[C@H](C)[C@H](NC(=O)[C@H](CCCCN)NC(=O)[C@H](C)NC(=O)[C@H](CC(C)C)NC(=O)[C@H](C)NC(=O)[C@H](CO)NC(=O)[C@H](C)NC(=O)[C@H](CO)NC(=O)[C@@H](N)Cc1c[nH]c2ccccc12)C(N)=O (H-WSASALAKI-NH2) |  |  | Km [5]: 300 µM
17 | O=C(OCc1ccc(C(=O)O)cc1)C1=CSC2CC(=O)N12 (stereo not drawn) | 31 |  | 
18 | O=C(O)C1=CSC2CC(=O)N12 (stereo not drawn) | 0 | 600 | 
19 | CN(Cc1ccccc1)C(=O)C1=CSC2CC(=O)N12 (stereo not drawn) | 88 | 50 | 
20 | CC[C@H](C)[C@H](NC(=O)[C@H](CCCCN)NC(=O)[C@H](C)NC(=O)[C@H](CC(C)C)NC(=O)[C@H](C)NC(=O)[C@H](CO)NC(=O)[C@H](C)NC(=O)[C@H](CO)NC(=O)[C@@H](N)Cc1ccccc1)C(N)=O (H-FSASALAKI-NH2) |  |  | Km [5]: 1000 µM
21 | C=CCOC(=O)C1=CSC2CC(=O)N12 (stereo not drawn) | 93 | 10 | 
22 | O=C(OCc1ccccc1)C1=CSC2CC(=O)N12 (stereo not drawn) |  | 10 | inhibition [6]: 100%
23 | CCN(CC)C(=O)C1=CSC2CC(=O)N12 (stereo not drawn) | 86 | 58 | 

Now from value to compound, other results behind:

Row | inhibition [1] [%] | IC50 [2] [µM] | Compound | also measured
24 | 19 |  | C=CCOC(=O)C1=CS[C@@H]2[C@@H](CC)C(=O)N12 | 
25 | 0 |  | CC(C)(C)NC(=O)C1=CSC2CC(=O)N12 (stereo not drawn) | 
26 | 0 |  | C=CCOC(=O)C1=CS[C@@H]2[C@@H]([C@H](C)OC(C)=O)C(=O)N12 | 
27 | 72 | 8 | COC(=O)c1cccc(COC(=O)C2=CSC3CC(=O)N23)c1 (stereo not drawn) | 
28 | 100 | 4 | COC(=O)C1=CSC2CC(=O)N12 (stereo not drawn) | 
29 | 83 | 13 | O=C(OCCCCc1ccccc1)C1=CSC2CC(=O)N12 (stereo not drawn) | 
30 | 0 |  | CCCCCCCCCCCCCCCCOC(=O)C1=CSC2CC(=O)N12 (stereo not drawn) | 
31 | 34 |  | O=C(NCc1ccccc1)C1=CSC2CC(=O)N12 (stereo not drawn) | 
32 | 100 | 6 | COCOC(=O)C1=CSC2CC(=O)N12 (stereo not drawn) | 
33 | 100 | 0.92 | C=CCOC(=O)C1=CS[C@H]2[C@@H]([C@@H](C)O)C(=O)N12 | IC50 [4]: 0.18 µM
34 | 100 | 21 | CCCCCOC(=O)C1=CSC2CC(=O)N12 (stereo not drawn) | 
35 | 77 | 87 | COc1ccc(NC(=O)C2=CSC3CC(=O)N23)cc1 (stereo not drawn) | 
36 | 0 |  | COc1ccc(COC(=O)C2=CS[C@@H]3CC(=O)N23)cc1 | 
